# According to ChEMBL document CHEMBL1126544, “Synthesis and biological evaluation of MC 1357, a new 20-epi-23-oxa-1,25-dihydroxy-vitamin D3 analogue with potent non-classical effects” (Bioorg Med Chem Lett, 1993):
# How the values were obtained:
# [1] = system: U-937; experiment: Concentration to induce cell differentiation in U 937 cells; assay type: functional, cell-based; conditions: Homo sapiens
# [2] = system: T-cell; experiment: Concentration to inhibit T-cell activation in Murine MLR; assay type: functional, cell-based; conditions: Mus musculus
# [3] = system: U-937; experiment: Concentration to inhibit cell proliferation in U 937 cells; assay type: functional, cell-based; conditions: Homo sapiens
# [4] = system: Rattus norvegicus; experiment: Compound was evaluated for calciuric effect (urinary calcium excretion in rats) at a dose of 0.5 ug/kg/day was administered orally for 7 days: Calcium excretion in control rats receiving vehicle alone of 20 umol/day.; assay type: functional, Urine
IC50 [2] [nM],IC50 [3] [nM],Structure (SMILES),Concentration [1] [nM],Ca2+ excretion [4] [µmol/day]
0.0006,0.01,C=C1/C(=C\C=C2/CCC[C@]3(C)[C@@H]([C@@H](C)COCCCC(C)(C)O)CC[C@@H]23)C[C@@H](O)C[C@@H]1O,0.001,49
0.05,–,C=C1/C(=C\C=C2/CCC[C@]3(C)[C@@H]([C@H](C)CCCC(C)(C)O)CC[C@@H]23)C[C@@H](O)C[C@@H]1O [CALCITRIOL],2,83
